Key:
[1] = Free radical scavenging activity on ABTS radical cation; assay type: biochemical
Protocol: This method measures the relative ability of free radical scavenging substances to scavenge the ABTS^.+ i.e. 2,2-Azino-bis-(3-ethyl benzo thiazoline-6-sulfonate) radical cation as compared to a standard amount of standard or free radical scavengers antioxidants. Incubation of ABTS with Peroxidase (metmyoglobin) and hydrogen peroxide results in the production of radical cation ABTS^.+. This species is blue-green in colour and can be detected at 730 nm. Antioxidants or free radical scavengers in the added sample that causes suppression of the color to a degree that is proportional to their concentration.
Preparation of Buffer Solutions
A. Phosphate Citrate Buffer (pH 5.0). 48.5 ml of 0.1M citric acid with sufficient 0.2M disodium hydrogen phosphate to produce 100 ml.
B. Phosphate Buffer Saline (PBS): Dissolve 40.0 g of NaCl, 1.0 g of KCl, 1.0 g of KH2PO4 and 3.05 g of Na2HPO4 in 1 liter milli-Q water. Dilute 200 ml of above solution to 1 liter with milli-Q water (pH 7.4-7.6).
C. 3 μM stock solution of Peroxidase was prepared in phosphate buffer saline pH 7.4(PBS).
D. 1.08 mM stock solution of Hydrogen peroxide was prepared in phosphate buffer saline pH 7.4 (PBS).
Preparation of ABTS Stock Solution
1 tablet (10 mg) was dissolved in phosphate citrate buffer (pH 5.0).
Preparation of ABTS Working Solution
5.0 ml of ABTS stock solution was diluted with PBS to 20 ml.
Preparation of Horse Radish Peroxidase Stock Solution
320 μg of the enzyme was dissolved in 2.5 ml of PBS.
Preparation of Hydrogen Peroxide (1.08 mM) Solution
12 μl of Hydrogen Peroxide (30% w/v) was diluted to 100 ml with PBS. […]
Preparation of ABTS Radical Stock Solution
To 18 ml of ABTS stock solution, 100 μl of Horseradish Peroxidase stock solution was added.
As soon as 1.5 ml of hydrogen peroxide solution was added to the above solution, blue-green colour of the ABTS radicals appeared. This solution was incubated at 30° C. for 30 min.
Preparation of Control Solution
980 μl of ABTS radical stock solution was added to an eppendorf tube. To it was added 100 μl of various PBS solution.
Preparation of test Solution
980 μl of ABTS radical stock solutions were added to different eppendorf tubes. To it were added 100 μl of various concentrations of drug solution.
Measurement of Absorbance (O.D)
The absorbance of control and test samples was recorded immediately at 730 nm taking PBS as blank.
Calculation: The percent antioxidant activity was calculated according to the formula. % Antioxidant activity=[O.D of test sample/O.D of control*100]−100.

AGE-BSA = target: T1, AGE-BSA (Bos taurus, UniProt P02769); experiment: In-vitro AGE breaking activity by ELISA; assay type: biochemical, Bovine; details: 37° C., 24 hours
T1 construct: Bovine serum albumin (fraction V) (BSA); from tissue; host or cells: bovine serum (fraction V); glycated in house with 1.6 M glucose at 37 °C for 16 weeks
Protocol: AGE breaking activity has been confirmed by the screening procedure as mentioned below:
Methods of experiment: Elisa (Enzyme Linked Immunosorbent Assay)
160 mg/ml of protein, bovine serum albumin, BSA and 1.6M glucose sugar were dissolved in phosphate buffered saline, PBS. Sodium azide was added at 0.02% concentration as a preservative. The solution was filtered asceptically through a […] filter and kept for aging at 37° C. for 16 weeks. After 16 weeks the solution was dialyzed against PBS, aliquoted and stored at −20° C.
To determine the AGE breaking activity, 10 μg/ml of the 16 weeks AGE-BSA was incubated with different concentrations of the test compounds at 37° C. for 24 hours and AGE breaking activity of the test compounds by ELISA was determined.
ELISA was performed as follows
1. Different concentrations of 16 weeks AGE-BSA were coated on a microtiter plate as standard. Each concentration is coated in triplicates.
2. The test samples were coated on microtiter plate at a concentration of 5 ng to 20 ng per well in triplicates
3. The plate was incubated at 37° C. for one hour.
4. After incubation the plate was washed with PBST (PBS with 0.05% Tween 20).
5. Blocking with 5% skimmed milk in PBS at 37° C. for one hour was done.
6. The plate was washed with PBST.
7. Primary antibody against AGE-BSA was added and the plate is incubated at 37° C. for one hour.
8. The plate was washed with PBST
9. Secondary antibody anti rabbit HRPO (Horse-Radish Per Oxidase) conjugate was added and the plate is incubated at 37° C. for one hour.
10. The plate was washed with PBST.
11. Colour development with OPD (orthophenylenediamine dihydrochloride) and hydrogen peroxide was done.
12. OD (optical density) at (450 nm reading-620 nm reading) was measured after incubation at 37° C. for 15 minutes with Microplate ELISA Reader
The breaker activity of the compounds were determined by the following formula: [formula]
OD450-620Control=Absorbance of 20 ng AGE-BSA after incubation at 37° C. for 24 hours without test compound
OD450-620Test=Absorbance of 20 ng AGE-BSA after incubation at 37° C. for 24 hours with required concentration of test compound
Using specific examples, the % AGE breaking activity was calculated and recorded in Table 2.

T1 sequence (P02769 25-607): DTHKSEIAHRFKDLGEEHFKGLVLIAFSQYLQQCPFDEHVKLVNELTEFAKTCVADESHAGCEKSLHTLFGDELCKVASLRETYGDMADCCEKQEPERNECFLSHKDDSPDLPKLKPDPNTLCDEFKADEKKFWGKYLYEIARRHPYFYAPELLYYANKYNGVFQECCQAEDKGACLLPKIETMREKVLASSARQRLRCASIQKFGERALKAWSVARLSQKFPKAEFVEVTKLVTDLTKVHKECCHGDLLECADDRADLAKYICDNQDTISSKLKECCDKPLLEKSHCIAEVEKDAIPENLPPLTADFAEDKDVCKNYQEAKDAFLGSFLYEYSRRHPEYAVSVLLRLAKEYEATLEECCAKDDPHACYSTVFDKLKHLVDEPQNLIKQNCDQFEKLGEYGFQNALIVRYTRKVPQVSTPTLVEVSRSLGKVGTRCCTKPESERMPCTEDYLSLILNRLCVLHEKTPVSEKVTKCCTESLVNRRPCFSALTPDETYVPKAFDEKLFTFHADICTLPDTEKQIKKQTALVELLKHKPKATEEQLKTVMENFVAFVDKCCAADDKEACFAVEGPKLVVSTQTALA

Structure (SMILES)	Relative Free Radical Scavenging Activity (%) on ABTS ([1]; 11.5 μM) [%]	Relative Free Radical Scavenging Activity (%) on ABTS ([1]; 23.0 μM) [%]	Relative Free Radical Scavenging Activity (%) on ABTS ([1]; 46.0 μM) [%]	Relative Free Radical Scavenging Activity (%) on ABTS ([1]; 92.5 μM) [%]	Relative Free Radical Scavenging Activity (%) on ABTS ([1]; 925 μM) [%]	% Breakage (AGE-BSA; 10 mM test compound) [%]	% Breakage (AGE-BSA; 25 mM test compound) [%]	% Breakage (AGE-BSA; 20 mM test compound) [%]
CCCCNC(=O)c1ccc[n+](CC(=O)c2ccc(Cl)cc2Cl)c1.[Br-] [Compound 97, 1-(2-(2,4-Dichlorophenyl)-2-oxoethyl)-3-(n-butylamino-carbonyl)pyridinium bromide]	16.5	27	37.8	44.5	97.8	–	–	–
O=C1CCCC(CCNNC(=O)c2ccc[n+](CC(=O)Nc3ccccc3)c2)C1.[Br-] (centres unmarked) [Compound 35, 1-(2-phenylamino-2-oxoethyl)-3-({2-(1-oxo-3-cyclohexyl)-ethyl}-hydrazinocarbonyl}pyridinium bromide]	50.5	63.4	80.9	90.6	100	–	–	–
O=C(C[n+]1cccc(C(=O)NCCOC(=O)c2ccccc2)c1)Nc1ccccc1.[Cl-] [Compound 23, 1-(2-phenylamino-2-oxoethyl)-3-((benzoyloxy)ethylaminocarbonyl)pyridinium chloride]	–	–	–	–	–	37	90	–
CCOC(=O)C[n+]1cccc(C(=O)NCCOC(=O)c2ccccc2)c1.[Br-] [Compound 7, 1-(2-ethoxy-2-oxoethyl)-3-(2-(benzoyloxy)ethylaminocarbonyl)pyridinium bromide]	–	–	–	–	–	–	–	36
O=C(C[n+]1ccc(C(=O)NCCOC(=O)c2ccccc2)cc1)Nc1ccccc1.[Cl-] [Compound 66, 1-(2-phenylamino-2-oxoethyl)-4-[2-(benzoyloxy)ethylaminocarbonyl]pyridinium chloride]	–	–	–	–	–	19.07	–	–
O=C(NCCOC(=O)c1ccccc1)c1ccc[n+](CC(=O)c2ccc(Cl)cc2Cl)c1.[Br-] [Compound 8, 1-(2-(2′,4′-dichlorophenyl)-2-oxoethyl)-3-(2-(benzoyloxy)ethylamino-carbonyl)pyridinium bromide]	40.8	53.7	72.6	81.2	100	–	–	–
NC(=O)c1cccnc1 [Niacinamide, reference compound]	0.0	2.2	3.8	3.8	9.2	–	–	–
O=C=Nc1ccc[n+](CC(=O)c2ccc(Cl)cc2Cl)c1.[Br-] [Compound 82, 3-Carbonylamino-1-(2-(2,4-dichlorophenyl)-2-oxoethyl)-pyridinium bromide]	26.0	44.3	62.7	75.5	100	–	–	–
O=C(C[n+]1cccc(C(=O)NNS(=O)(=O)Cc2ccccc2)c1)c1ccccc1.[Br-] [Compound 31, 1-(2-phenyl-2-oxoethyl)-3-((phenylmethyl)sulfonyl hydrazinocarbonyl)pyridinium bromide]	41.6	57.7	66.9	99.2	100	–	–	–
O=C(NCCOC(=O)c1ccccc1)c1ccc[n+](CC(=O)c2cccs2)c1.[Br-] [Compound 36, 1-(2-thien-2′-yl-2-oxoethyl)-3-[2-(benzoyloxy)ethylaminocarbonyl]-pyridinium bromide]	27.6	59.2	74.2	83.9	100	–	–	–
O=C(C[n+]1cccc(C(=O)c2ccccc2)c1)c1ccccc1.[Br-] [Compound 98, 1-(2-Phenyl-2-oxoethyl)-3-(1-phenyl-1-oxomethyl)pyridinium bromide]	7.1	26.9	51.1	78.6	99.1	–	–	–
O=C(CCC1CCCCC1)NNC(=O)c1ccc[n+](CC(=O)c2cccs2)c1.[Br-] [Compound 34, 1-(2-thien-2′-yl-2-oxoethyl)-3-((2-(1-oxo-3-cyclohexyl)-ethyl)-hydrazinocarbonyl)-pyridinium bromide]	50.3	53.8	65.4	80.4	100	–	–	–
Cc1ccc(S(=O)(=O)NNC(=O)c2ccc[n+](CC(=O)Nc3ccccc3)c2)cc1.[Cl-] [Compound 27, 1-(2-phenylamino-2-oxoethyl)-3-((4-methylphenyl)sulfonyl hydrazinocarbonyl)pyridinium chloride]	43.9	55.5	75.3	99.6	100	–	–	–
O=C(NCCOC(=O)c1ccccc1)c1cc[n+](CC(=O)c2cccs2)cc1.[Br-] [Compound 18, 1-(2-thien-2′-yl-2-oxoethyl)-4-(2-(benzoyloxy)ethylaminocarbonyl)pyridinium bromide]	41.8	59.5	75.2	91.0	100	–	–	–
